ChEMBL document CHEMBL1134037, “Novel inhibitors of Leishmanial dihydrofolate reductase” (Bioorg Med Chem Lett, 2001)

Legend:
[1] = target: T1, Dihydrofolate reductase (Homo sapiens) (UniProt P00374); assay: Percent inhibition of compound against recombinant human dihydrofolate reductase at a concentration of 100 uM
T1 sequence (whole entry): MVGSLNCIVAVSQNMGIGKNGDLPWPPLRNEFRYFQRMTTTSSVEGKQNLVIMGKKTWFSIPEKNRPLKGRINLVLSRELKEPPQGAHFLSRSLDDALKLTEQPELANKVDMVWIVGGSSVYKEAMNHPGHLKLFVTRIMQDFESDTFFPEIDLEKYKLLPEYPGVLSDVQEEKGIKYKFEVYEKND

[2] = (§1) Cytotoxicity of compound was determined against rat L-6 cells; type: functional, cell-based; conditions: L6
Leishmania donovani = assay: In vitro inhibition of compound against Leishmania donovani was determined; type: functional, organism-based
Trypanosoma cruzi = assay: In vitro inhibition of compound against Trypanosoma cruzi was determined; type: functional, organism-based
Trypanosoma brucei = assay: In vitro inhibition of compound against Trypanosoma brucei was determined; type: functional, organism-based
[3] = target: Bifunctional dihydrofolate reductase-thymidylate synthase (Leishmania major) (UniProt P07382); assay: Percent inhibition of compound against recombinant Leishmanial major dihydrofolate reductase at a concentration of 100 uM
Bifunctional dihydrofolate reductase-thymidylate synthase (Leishmania major), sequence (P07382 whole entry, looked up): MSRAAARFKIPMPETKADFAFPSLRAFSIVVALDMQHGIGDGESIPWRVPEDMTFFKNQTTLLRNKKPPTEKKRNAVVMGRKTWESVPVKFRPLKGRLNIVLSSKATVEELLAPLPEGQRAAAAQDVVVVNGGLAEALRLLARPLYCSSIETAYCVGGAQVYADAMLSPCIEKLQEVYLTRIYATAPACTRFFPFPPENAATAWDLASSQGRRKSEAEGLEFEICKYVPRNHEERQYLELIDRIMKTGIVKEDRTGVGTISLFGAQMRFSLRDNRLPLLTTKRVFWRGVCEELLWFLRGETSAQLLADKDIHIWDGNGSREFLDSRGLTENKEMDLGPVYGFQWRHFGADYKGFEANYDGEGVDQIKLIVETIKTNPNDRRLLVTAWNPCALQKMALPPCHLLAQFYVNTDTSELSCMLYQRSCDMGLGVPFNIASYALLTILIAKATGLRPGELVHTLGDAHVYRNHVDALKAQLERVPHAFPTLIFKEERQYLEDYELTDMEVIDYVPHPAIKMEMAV

[4] = target: T1, Dihydrofolate reductase (Homo sapiens); assay: Percent inhibition of compound against recombinant human dihydrofolate reductase at a concentration of 15 uM
[5] = as §1; type: functional
[6] = target: T1, Dihydrofolate reductase (Homo sapiens); assay: Percent inhibition of compound against recombinant human dihydrofolate reductase at a concentration of 50 uM

Row | SMILES | inhibition [1] | IC50 [2] | IC50 (Leishmania donovani) | IC50 (Trypanosoma cruzi) | IC50 (Trypanosoma brucei) | inhibition [3] | inhibition [4] | MIC [5] | inhibition [6]
1 | CCOC(=O)/C(C#N)=C/c1ccc(/C=C/c2ccccn2)cc1 | 43% | > 296 µM | 47 µM | 8.6 µM | 15 µM | 50% |  |  | 
2 | COC(=O)/C(C#N)=C/c1ccc(/C=C/c2ccccn2)cc1 |  |  | 56 µM | 30 µM | 16 µM | 32% | 21% | > 310 µM | 
3 | O=c1[nH]c(=O)n([C@H]2C[C@H](O)[C@@H](CO)O2)c2nc(-c3ccccc3)c(-c3ccccc3)nc12 |  | 208 µM | 69 µM | 35 µM | 11 µM | 50% |  |  | 37%
4 | COC(=O)N[C@H](C(=O)OC)[C@H](O)[C@@H](C)c1c(C)nc2n(C)c3ncn(Cc4ccccc4)c3c(=O)n12 | 16% | 181 µM | < 21 µM | 53 µM | 108 µM | 24% |  |  | 
5 | CCn1ncc2c1n/c(=N\c1ccccc1)n1ccc3ccccc3c21 | 10% | > 265 µM | 54 µM | 60 µM | 35 µM | 28% |  |  | 
